According to PubChem BioAssay AID1259407 (Chemical Carcinogenesis Research Information System (CCRIS), 2018):
Activity calls are given as the source filed them. The rule behind the calls is not given here.

System: CCRIS mutagenicity, Ames/micronucleus/aberration tests
Assay: CCRIS mutagenicity studies
[1] = Test System: AMES SALMONELLA TYPHIMURIUM, Strain/Indicator: TA97, Metabolic Activation: NONE, Method: PREINCUBATION
[2] = Test System: AMES SALMONELLA TYPHIMURIUM, Strain/Indicator: TA98, Metabolic Activation: HAMSTER, LIVER, S-9, AROCLOR 1254 (30%), Method: PREINCUBATION
[3] = Test System: AMES SALMONELLA TYPHIMURIUM, Strain/Indicator: TA98, Metabolic Activation: NONE, Method: PREINCUBATION
[4] = Test System: AMES SALMONELLA TYPHIMURIUM, Strain/Indicator: TA100, Metabolic Activation: HAMSTER, LIVER, S-9, AROCLOR 1254 (30%), Method: PREINCUBATION
[5] = Test System: AMES SALMONELLA TYPHIMURIUM, Strain/Indicator: TA100, Metabolic Activation: NONE, Method: PREINCUBATION

CCCCCCCCn1sccc1=O was tested, and the mutagenic call (Test System: AMES SALMONELLA TYPHIMURIUM, Strain/Indicator: TA97, Metabolic Activation: HAMSTER, LIVER, S-9, AROCLOR 1254 (10%), Method: PREINCUBATION) was “inactive; negative”, the mutagenic call (Test System: AMES SALMONELLA TYPHIMURIUM, Strain/Indicator: TA97, Metabolic Activation: HAMSTER, LIVER, S-9, AROCLOR 1254 (30%), Method: PREINCUBATION) was “inactive; negative” and the mutagenic call [1] was “inactive; negative”. The mutagenic call (Test System: AMES SALMONELLA TYPHIMURIUM, Strain/Indicator: TA97, Metabolic Activation: RAT, LIVER, S-9, AROCLOR 1254 (10 OR 30%), Method: PREINCUBATION) was “inactive; negative”, the mutagenic call (Test System: AMES SALMONELLA TYPHIMURIUM, Strain/Indicator: TA98, Metabolic Activation: HAMSTER, LIVER, S-9, AROCLOR 1254 (10%), Method: PREINCUBATION) was “inactive; negative” and the mutagenic call [2] was “inactive; negative”. For the same molecule, the mutagenic call [3] was “inactive; negative”, the mutagenic call (Test System: AMES SALMONELLA TYPHIMURIUM, Strain/Indicator: TA98, Metabolic Activation: RAT, LIVER, S-9, AROCLOR 1254 (10 OR 30%), Method: PREINCUBATION) was “inactive; negative” and the mutagenic call (Test System: AMES SALMONELLA TYPHIMURIUM, Strain/Indicator: TA100, Metabolic Activation: HAMSTER, LIVER, S-9, AROCLOR 1254 (10%), Method: PREINCUBATION) was “inactive; negative”. The mutagenic call [4] was “inactive; negative”, the mutagenic call [5] was “inactive; negative” and the mutagenic call (Test System: AMES SALMONELLA TYPHIMURIUM, Strain/Indicator: TA100, Metabolic Activation: RAT, LIVER, S-9, AROCLOR 1254 (10 OR 30%), Method: PREINCUBATION) was “inactive; negative”. For the same molecule, the mutagenic call (Test System: AMES SALMONELLA TYPHIMURIUM, Strain/Indicator: TA1535, Metabolic Activation: HAMSTER, LIVER, S-9, AROCLOR 1254 (10%), Method: PREINCUBATION) was “inactive; negative”, the mutagenic call (Test System: AMES SALMONELLA TYPHIMURIUM, Strain/Indicator: TA1535, Metabolic Activation: HAMSTER, LIVER, S-9, AROCLOR 1254 (30%), Method: PREINCUBATION) was “inactive; negative” and the mutagenic call (Test System: AMES SALMONELLA TYPHIMURIUM, Strain/Indicator: TA1535, Metabolic Activation: NONE, Method: PREINCUBATION) was “inactive; negative”. For the same molecule, the mutagenic call (Test System: AMES SALMONELLA TYPHIMURIUM, Strain/Indicator: TA1535, Metabolic Activation: RAT, LIVER, S-9, AROCLOR 1254 (10%), Method: PREINCUBATION) was “inactive; negative”, the mutagenic call (Test System: AMES SALMONELLA TYPHIMURIUM, Strain/Indicator: TA1535, Metabolic Activation: RAT, LIVER, S-9, AROCLOR 1254 (30%), Method: PREINCUBATION) was “inactive; negative” and the mutagenic call (Test System: AMES SALMONELLA TYPHIMURIUM, Strain/Indicator: TA1537, Metabolic Activation: HAMSTER, LIVER, S-9, AROCLOR 1254 (30%), Method: PREINCUBATION) was “inactive; negative”. For the same molecule, the mutagenic call (Test System: AMES SALMONELLA TYPHIMURIUM, Strain/Indicator: TA1537, Metabolic Activation: NONE, Method: PREINCUBATION) was “inactive; negative” and the mutagenic call (Test System: AMES SALMONELLA TYPHIMURIUM, Strain/Indicator: TA1537, Metabolic Activation: RAT, LIVER, S-9, AROCLOR 1254 (30%), Method: PREINCUBATION) was “inactive; negative”.

In the case of COc1ccc(/C=N/n2nnc3c([nH]c4ccccc43)c2=O)cc1, the mutagenic call [1] is reported as “active; positive”, the mutagenic call (Test System: AMES SALMONELLA TYPHIMURIUM, Strain/Indicator: TA97, Metabolic Activation: RAT, LIVER, S-9, AROCLOR 1254 (10%), Method: PREINCUBATION) is reported as “active; positive” and the mutagenic call [3] is reported as “active; positive”. The mutagenic call (Test System: AMES SALMONELLA TYPHIMURIUM, Strain/Indicator: TA98, Metabolic Activation: RAT, LIVER, S-9, AROCLOR 1254 (10%), Method: PREINCUBATION) was “active; positive”, the mutagenic call [5] was “active; positive” and the mutagenic call (Test System: AMES SALMONELLA TYPHIMURIUM, Strain/Indicator: TA100, Metabolic Activation: RAT, LIVER, S-9, AROCLOR 1254 (10%), Method: PREINCUBATION) was “active; positive”. The mutagenic call (Test System: AMES SALMONELLA TYPHIMURIUM, Strain/Indicator: TA102, Metabolic Activation: NONE, Method: PREINCUBATION) was “inactive; negative” and the mutagenic call (Test System: AMES SALMONELLA TYPHIMURIUM, Strain/Indicator: TA102, Metabolic Activation: RAT, LIVER, S-9, AROCLOR 1254 (10%), Method: PREINCUBATION) was “inactive; negative”.

Fc1ccc(F)c2c1ccc1ncccc12 was tested, and the mutagenic call (Test System: AMES SALMONELLA TYPHIMURIUM, Strain/Indicator: TA100, Metabolic Activation: RAT, LIVER, S-9, PHENOBARBITAL AND 5,6-BENZOFLAVONE, Method: PREINCUBATION) was “active; positive”.

COc1ccc(OC)c(N=Nc2c(O)ccc3ccccc23)c1 was tested, and the mutagenic call [2] was “active; positive”, the mutagenic call [3] was “inactive; negative” and the mutagenic call [4] was “active; positive”. The mutagenic call [5] was “inactive; negative” and the mutagenic call (Test System: AMES SALMONELLA TYPHIMURIUM, Strain/Indicator: TA100, Metabolic Activation: RAT, LIVER, S-9, AROCLOR 1254 (30%), Method: PREINCUBATION) was “active; positive”.

For CNc1ccc2nccnc2c1C, the mutagenic call [3] was “inactive; negative”, the mutagenic call (Test System: AMES SALMONELLA TYPHIMURIUM, Strain/Indicator: TA98, Metabolic Activation: RAT, LIVER, S-9, PCB, Method: PREINCUBATION) was “active; positive” and the mutagenic call [5] was “inactive; negative”.

Nc1ccc(I)cc1Cl was tested, and the mutagenic call (End Point: In vitro chromosomal aberrations, Test System: Chinese hamster lung (CHL/IU) cells, Metabolic Activation: Rat, Liver, S9, Phenobarbital and 5,6-benzoflavone) was “active; positive (structural changes). weak response”, the mutagenic call (Test System: Ames Salmonella typhimurium, Strain/Indicator: TA98, Metabolic Activation: None, Method: Preincubation) was “inactive; negative” and the mutagenic call (Test System: Ames Salmonella typhimurium, Strain/Indicator: TA98, Metabolic Activation: Rat, Liver, S9, Sodium phenobarbital and 5,6-benzoflavone (10%), Method: Preincubation) was “inactive; negative”. The mutagenic call (Test System: Ames Salmonella typhimurium, Strain/Indicator: TA100, Metabolic Activation: None, Method: Preincubation) was “inactive; negative”, the mutagenic call (Test System: Ames Salmonella typhimurium, Strain/Indicator: TA1535, Metabolic Activation: None, Method: Preincubation) was “inactive; negative” and the mutagenic call (Test System: Ames Salmonella typhimurium, Strain/Indicator: TA1535, Metabolic Activation: Rat, Liver, S9, Sodium phenobarbital and 5,6-benzoflavone (10%), Method: Preincubation) was “inactive; negative”. The mutagenic call (Test System: Ames Salmonella typhimurium, Strain/Indicator: TA1537, Metabolic Activation: None, Method: Preincubation) was “inactive; negative”, the mutagenic call (Test System: Ames Salmonella typhimurium, Strain/Indicator: TA1537, Metabolic Activation: Rat, Liver, S9, Sodium phenobarbital and 5,6-benzoflavone (10%), Method: Preincubation) was “inactive; negative” and the mutagenic call (Test System: E. coli, Strain/Indicator: WP2uvrA/pKM101, Metabolic Activation: None, Method: Preincubation) was “inactive; negative”. For the same molecule, the mutagenic call (Test System: E. coli, Strain/Indicator: WP2uvrA/pKM101, Metabolic Activation: Rat, Liver, S9, Sodium phenobarbital and 5,6-benzoflavone (10%), Method: Preincubation) was “inactive; negative”.

For Oc1cc2ccccc2c2cc3c(ccc4ccccc43)nc12, the mutagenic call (Test System: AMES SALMONELLA TYPHIMURIUM, Strain/Indicator: TA100, Metabolic Activation: GUINEA PIG, LIVER, S-9, 3-METHYLCHOLANTHRENE, Method: STANDARD PLATE) was “inactive; negative” and the mutagenic call (Test System: CHINESE HAMSTER V-79, Strain/Indicator: V-79/6-THIOGUANINE, Metabolic Activation: GUINEA PIG, LIVER, S-9, 3-METHYLCHOLANTHRENE) was “inactive; negative”.
